# Values quoted from earlier work in patent publication US6506055B1, “Method of reducing dentin sensitivity and compositions therefor” (MCG Research Institute, priority 1999, dated 2003).
# Conditions: 3% w/v applied to dentin; both in vitro and in vivo
smiles,measurement,value
O=C([O-])C(=O)O.[K+] [monopotassium-monohydrogen oxalate],Hydraulic conductance of dentin,reduced
